# In paper PMC3646298 (Pharmaceutical research, 2012):
# Where two headings read alike, the source gives them in different places.
# Assays:
# [1] = biological target: colchicine-binding site on tubulin (Sus scrofa, UniProt P02550+P02554); experiment: Competitive mass spectrometry binding assay; design: species or system porcine; conditions: tubulin 1 mg/mL, competitor 0.2–200 μM
# [2] = system: PPC-1; experiment: SRB cytotoxicity assay in PPC-1; type: cell-based; conditions: Homo sapiens, PPC-1, 96 h, read-out: Cytotoxicity IC50
# [3] = system: U87MG; experiment: SRB cytotoxicity assay in U87MG glioma; type: cell-based, human; conditions: read-out: Cytotoxicity IC50, 96 h treatment, mean ± SD, N=3
# [4] = system: PC-3; experiment: Apoptosis; type: cell-based, human; conditions: PC-3, 0.8–600 nmol/L, 24 h
# [5] = system: PC-3/TxR; experiment: Apoptosis; type: cell-based, human; conditions: 0.8–600 nmol/L, 24 h
# [6] = Paclitaxel-resistant PC-3/TxR tumor xenograft study; type: in vivo, nude mice; conditions: male, athymic nude, mouse, tumor, po, 30 mg/kg
# [7] = system: PC-3/TxR tumors; experiment: as above; type: in vivo, nude mice; conditions: for Body weight Start / Body weight End / TGI: PC-3/TxR xenograft
# [8] = in vivo; conditions: male (mice), female (rats, dogs), ICR (mouse), Sprague-Dawley (rat), beagle (dog), po
# [9] = in vivo; conditions: female, beagle, dog, plasma, po, 5 mg/kg
# [10] = in vitro; conditions: human, Caco-2
# [11] = Pharmacokinetic study in rats; conditions: female, Sprague-Dawley, rat, plasma, po, 10 mg/kg
# [12] = cited from earlier work
# [13] = system: PC-3/TxR; experiment: SRB cytotoxicity assay in paclitaxel-resistant PC-3/TxR; type: cell-based, human
# [14] = system: PC-3 tumors; experiment: PC-3 tumor xenograft study; type: in vivo, nude mice; conditions: PC-3 xenograft, day 1 and 9, end point day 19
# [15] = system: LNCaP; conditions: read-out: Cytotoxicity IC50, ref Ahn et al., MCT 9:2959, 2010 ([33]); cited from earlier work
# [16] = system: Du-145; conditions: read-out: Cytotoxicity IC50, ref Ahn et al., MCT 9:2959, 2010 ([33]); cited from earlier work
# [17] = system: PPC-1; conditions: read-out: Cytotoxicity IC50, ref Ahn et al., MCT 9:2959, 2010 ([33]); cited from earlier work
# [18] = PO 10 mg/kg, b.i.d×5/w, end point day 26
# [19] = IV 10 mg/kg, day 1 and 9, end point day 19
# [20] = IV 20 mg/kg, day 1 and 9, end point day 19
smiles,measurement,setting,value
CC[C@]1(O)C[C@@H]2CN(CCc3c([nH]c4ccccc34)[C@@](C(=O)OC)(c3cc4c(cc3OC)N(C)[C@H]3[C@@](O)(C(=O)OC)[C@H](OC(C)=O)[C@]5(CC)C=CCN6CC[C@]43[C@@H]65)C2)C1 [Vinblastine],competition with colchicine for tubulin binding,[1],did not inhibit colchicine binding to tubulin
CC(=O)O[C@H]1C(=O)[C@@]2(C)[C@H]([C@H](OC(=O)c3ccccc3)[C@]3(O)C[C@H](OC(=O)[C@H](O)[C@@H](NC(=O)c4ccccc4)c4ccccc4)C(C)=C1C3(C)C)[C@]1(OC(C)=O)CO[C@@H]1C[C@@H]2O [Paclitaxel],IC50,[2],23 ± 0.8 nM
"COc1cc(C(=O)c2csc(Nc3ccc4[nH]ccc4c3)n2)cc(OC)c1OC [IAT, (2-(1H-indol-5-ylamino)-thiazol-4-yl)(3,4,5-trimethoxyphenyl)methanone]",IC50,[3],22 ± 30 nM
same,competition with colchicine for tubulin binding,[1],competed effectively with colchicine for tubulin binding
same,induction of cell apoptosis (DNA histone complex formation),[4],equally potent in their ability to induce cell apoptosis
same,induction of cell apoptosis (DNA histone complex formation),[5],equally potent in their ability to induce cell apoptosis
same,Kp at 1 h,[6],0.43 ± 0.33
same,Body weight Start,"[7]; PO 10 mg/kg, b.i.d×5/w",29 ± 2 g
same,Body weight End,[7]; [18],26 ± 3 g
same,TGI,[7]; [18],59%
same,Body weight Start,"[7]; PO 30 mg/kg, b.i.d×5/w",29 ± 3 g
same,Body weight End,"[7]; PO 30 mg/kg, b.i.d×5/w, end point day 26",30 ± 2 g
same,Tumor growth inhibition,"[7]; paclitaxel-resistant prostate cancer xenograft, treated orally at doses of 3–30 mg/kg",greater than 100%
same,bioavailability,[8],24 to 36%
same,bioavailability,[9],36%
same,Papp A→B,[10],99 ×10⁻⁶ cm/s
same,bioavailability,[11],24%
"COc1cc(C(=O)c2csc(-c3ccccc3)n2)cc(OC)c1OC [SMART-H, 4-(3,4,5-trimethoxybenzoyl)-2-phenyl-thiazole]",neurotoxicity,[12],did not find any signs of obvious neurotoxicity
CC(=O)O[C@@]12CO[C@@H]1C[C@H](O)[C@@]1(C)C(=O)[C@H](O)C3=C(C)[C@@H](OC(=O)[C@H](O)[C@@H](NC(=O)OC(C)(C)C)c4ccccc4)C[C@@](O)([C@@H](OC(=O)c4ccccc4)[C@H]21)C3(C)C [Docetaxel],Resistance factor (IC50 in PC-3/TxR compared with PC-3),[13],15
same,IC50,"[13]; Homo sapiens, PC3-TxR, 96 h, read-out: Cytotoxicity IC50",18 ± 0.7 nM
same,induction of cell apoptosis (DNA histone complex formation),[4],potently induced cell apoptosis
same,induction of cell apoptosis (DNA histone complex formation),[5],substantially weaker
same,Body weight End,[14]; IV 10 mg/kg,24 ± 2 g
same,Body weight End,[14]; IV 20 mg/kg,24 ± 3 g
same,Body weight End,[7]; [19],25 ± 2 g
same,TGI,[7]; [19],14%
same,Body weight End,[7]; [20],25 ± 4 g
same,TGI,[7]; [20],56%
same,IC50,[15],4.7 ± 1.3 nM
same,IC50,[16],5.2 ± 1 nM
same,IC50,[17],2.7 ± 1 nM
